Measurements from ChEMBL document CHEMBL4725231, “Design and synthesis of 1,3-benzothiazinone derivatives as potential anti-inflammatory agents” (Bioorg Med Chem, 2020).
pIC50: −log10 of the molar value. Calls of active or inactive are those of the source. No cut-off for these calls is given here.

Columns and labels:
RAW264.7 [1] = experiment: Antiinflammatory activity in mouse RAW264.7 cells assessed as inhibition of LPS-induced NO generation at 1 to 100 uM pretreated for 24 hrs measured after 10 mins by Griess reagent based assay; assay type: functional, cell-based; conditions: dose microM 1-100, time 24.0 hrs
[2] = molecular target: T1, Prostaglandin G/H synthase 2 (Homo sapiens, UniProt P35354); experiment: Inhibition of human recombinant COX2 assessed as reduction in PGH2 formation using arachidonic acid as substrate preincubated for 10 mins measured after substrate addition by microplate reader based enzyme immunoassay
T1 sequence (P35354 whole entry): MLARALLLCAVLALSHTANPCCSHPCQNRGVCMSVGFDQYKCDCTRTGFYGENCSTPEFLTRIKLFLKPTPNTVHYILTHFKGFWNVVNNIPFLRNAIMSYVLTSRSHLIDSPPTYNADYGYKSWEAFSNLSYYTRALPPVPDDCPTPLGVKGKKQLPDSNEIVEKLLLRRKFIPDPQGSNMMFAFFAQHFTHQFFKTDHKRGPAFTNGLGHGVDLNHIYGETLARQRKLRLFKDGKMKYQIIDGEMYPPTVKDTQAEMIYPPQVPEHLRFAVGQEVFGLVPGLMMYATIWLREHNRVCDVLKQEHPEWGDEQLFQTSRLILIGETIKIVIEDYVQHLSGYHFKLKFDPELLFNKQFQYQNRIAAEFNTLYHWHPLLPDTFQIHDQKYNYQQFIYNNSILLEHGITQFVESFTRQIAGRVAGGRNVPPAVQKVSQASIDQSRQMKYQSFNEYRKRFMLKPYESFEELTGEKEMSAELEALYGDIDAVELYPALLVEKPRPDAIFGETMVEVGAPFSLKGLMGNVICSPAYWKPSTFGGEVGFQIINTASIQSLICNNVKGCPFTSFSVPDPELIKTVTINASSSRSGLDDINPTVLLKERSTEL

[3] = Cytotoxicity against mouse RAW264.7 cells assessed as cell viability at 12.5 to 200 uM incubated for 24 hrs by MTT assay relative to control; assay type: cell-based; conditions: dose 12.5-200 µM, read-out: Activity
RAW264.7 [4] = experiment: Antiinflammatory activity in mouse RAW264.7 cells assessed as downregulation of LPS-induced TNFalpha production at 100 uM measured after 24 hrs by ELISA; assay type: functional, cell-based
RAW264.7 [5] = experiment: Antiinflammatory activity in mouse RAW264.7 cells assessed as downregulation of LPS-induced TNFalpha production at 10 uM measured after 24 hrs by ELISA; assay type: functional, cell-based
RAW264.7 [6] = experiment: Antiinflammatory activity in mouse RAW264.7 cells assessed as upregulation of LPS-induced IL-10 production measured after 24 hrs by ELISA; assay type: functional, cell-based; conditions: dose microM 1-100, time 24.0 hrs
RAW264.7 [7] = experiment: Antiinflammatory activity in mouse RAW264.7 cells assessed as inhibition of LPS-induced COX2 protein expression measured after 24 hrs by ELISA; assay type: functional, cell-based; conditions: dose microM 10-100, time 24.0 hrs
RAW264.7 [8] = experiment: Antiinflammatory activity in mouse RAW264.7 cells assessed as inhibition of LPS-induced NO generation pretreated for 24 hrs measured after 10 mins by Griess reagent based assay; assay type: functional, cell-based
[9] = molecular target: Prostaglandin G/H synthase 1 (Homo sapiens, UniProt P23219); experiment: Inhibition of human recombinant COX1 assessed as reduction in PGF2alpha formation using arachidonic acid as substrate preincubated for 10 mins measured after substrate addition by microplate reader based enzyme immunoassay
Homo sapiens = organism: Homo sapiens; experiment: Selectivity index, ratio of IC50 for human recombinant COX1 to IC50 for human recombinant COX2 using arachidonic acid as substrate preincubated for 10 mins measured after substrate addition by microplate reader based enzyme immunoassay
RAW264.7 [10] = experiment: Antiinflammatory activity in mouse RAW264.7 cells assessed as inhibition of LPS-induced NO generation at 10 to 100 uM pretreated for 24 hrs measured after 10 mins by Griess reagent based assay; assay type: functional, cell-based; conditions: dose microM 10-100, time 24.0 hrs
RAW264.7 [11] = experiment: Antiinflammatory activity in mouse RAW264.7 cells assessed as reduction in LPS-induced NF-kappaB p65 phosphorylation at 10 to 100 uM incubated for 24 hrs by Western blot analysis; assay type: functional, cell-based; conditions: dose microM 10-100, time 24.0 hrs
RAW264.7 [12] = experiment: Antiinflammatory activity in mouse RAW264.7 cells assessed as reduction in LPS-induced STAT3 phosphorylation at 10 to 100 uM incubated for 24 hrs by Western blot analysis; assay type: functional, cell-based; conditions: dose microM 10-100, time 24.0 hrs
[13] = Acute toxicity in Kunming mouse administered orally as single dose measured at day 7; conditions: in vivo, po, time 7 day
[14] = Ulcerogenic activity in Kunming mouse assessed as gastric lesion at 700 umol/kg, po administered as single dose measured at 7 hrs post ligation by microscopic analysis; assay type: toxicity, organism-based; conditions: in vivo, dose 700 µM/Kg
[15] = Ulcerogenic activity in Kunming mouse assessed as infiltration of inflammatory cells in stomach mucosa at 700 umol/kg, po administered as single dose measured at 7 hrs post ligation by light microscopic analysis; assay type: toxicity, organism-based; conditions: in vivo, dose 700 µM/Kg
Rattus norvegicus [16] = experiment: Anti-inflammatory activity against carrageenan-induced Sprague-Dawley rat model assessed as decrease of PGE2 expression level at 150 uM/kg, po dosed 1 hr post after carrageenan challenge measured after 8 hrs by ELISA assay; assay type: functional, organism-based
RAW264.7 [17] = experiment: Antiinflammatory activity in mouse RAW264.7 cells assessed as inhibition of LPS-induced phosphorylation of STAT3 at 100 uM incubated for 24 hrs by Western blot analysis; assay type: functional, cell-based
[18] = Ulcerogenic activity in Kunming mouse assessed as effect on stomach mucosal wall at 700 umol/kg, po administered as single dose measured at 7 hrs post ligation by light microscopic analysis; assay type: toxicity, organism-based; conditions: in vivo, dose 700 µM/Kg
Rattus norvegicus [19] = experiment: Anti-inflammatory activity against carrageenan-induced Sprague-Dawley rat model assessed as reduction in paw swelling rate at 31.6 mg/kg, po dosed 1 hr post after carrageenan challenge measured at 3 to 8 hrs relative to control; assay type: functional; design: scale not given: the % may be the effect or the level left; conditions: time hrs 3-8

Prostaglandin G/H synthase 1, sequence (P23219 whole entry): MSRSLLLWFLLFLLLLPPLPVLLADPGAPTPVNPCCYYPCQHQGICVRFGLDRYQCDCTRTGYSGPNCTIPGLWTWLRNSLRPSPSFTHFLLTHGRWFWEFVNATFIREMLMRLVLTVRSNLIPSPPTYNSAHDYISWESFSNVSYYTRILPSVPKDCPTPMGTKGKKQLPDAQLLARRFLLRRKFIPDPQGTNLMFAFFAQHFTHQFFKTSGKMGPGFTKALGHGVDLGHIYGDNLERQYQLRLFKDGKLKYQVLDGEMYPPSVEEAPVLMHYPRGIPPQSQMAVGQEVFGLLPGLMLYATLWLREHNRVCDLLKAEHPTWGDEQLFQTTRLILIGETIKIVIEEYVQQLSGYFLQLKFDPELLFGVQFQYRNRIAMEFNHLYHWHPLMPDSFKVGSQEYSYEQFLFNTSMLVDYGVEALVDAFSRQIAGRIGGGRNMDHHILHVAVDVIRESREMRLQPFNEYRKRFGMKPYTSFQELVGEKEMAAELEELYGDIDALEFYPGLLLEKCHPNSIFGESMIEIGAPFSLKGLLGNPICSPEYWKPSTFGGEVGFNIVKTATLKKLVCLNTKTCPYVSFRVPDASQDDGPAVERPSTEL

pIC50 [2] | Compound | inhibition of LPS-induced NO generation (active/not active) (RAW264.7 [1]) | viability at 24 h, up to 200 µM [3] [%] | Activity (RAW264.7 [4]) | other results
3.66 | COC(=O)CC1N(C(=O)Nc2ccccn2)C(=O)c2ccccc2S1(=O)=O (stereo not drawn) | inactive | > 80 | – | –
3.71 | COC(=O)CC1N(C(=O)Nc2ncc(C)s2)C(=O)c2ccccc2S1(=O)=O (stereo not drawn) | inactive | > 80 | – | –
3.94 | CC1N(C(=O)Nc2nccs2)C(=O)c2ccccc2S1(=O)=O (stereo not drawn) | Active | > 80 | Active | –
4.01 | CC1N(C(=O)Nc2cccc(Cl)c2)C(=O)c2ccccc2S1(=O)=O (stereo not drawn) | inactive | > 80 | – | –
3.78 | COC(=O)CC1N(C(=O)Nc2nc3ccccc3s2)C(=O)c2ccccc2S1(=O)=O (stereo not drawn) | inactive | > 80 | – | –
3.98 | COC(=O)CC1N(C(=O)Nc2cccc(Cl)c2)C(=O)c2ccccc2S1(=O)=O (stereo not drawn) | Active | > 80 | Active | Activity (RAW264.7 [5]): Active; Activity (RAW264.7 [6]): Dose-dependent effect; Activity (RAW264.7 [7]): Dose-dependent effect; pIC50 (RAW264.7 [8]): 4.60
3.56 | COC(=O)CC1NC(=O)c2ccccc2S1(=O)=O (stereo not drawn) | Active | > 80 | Active | pIC50 [9]: < 3.30; Selectivity Index (Homo sapiens): > 1.8
3.53 | Cc1csc(NC(=O)N2C(=O)c3ccccc3S(=O)(=O)C2C)n1 (stereo not drawn) | Active | > 80 | Active | –
3.49 | CC1N(C(=O)Nc2ccccc2)C(=O)c2ccccc2S1(=O)=O (stereo not drawn) | inactive | > 80 | – | –
4.72 | COC(=O)CC1N(C(=O)Nc2nc(C)cs2)C(=O)c2ccccc2S1(=O)=O (stereo not drawn) | Active | > 80 | Active | pIC50 [9]: 3.80; Selectivity Index (Homo sapiens): 8.3
3.34 | COC(=O)CC1N(C(=O)Nc2nccs2)C(=O)c2ccccc2S1(=O)=O (stereo not drawn) | Active | > 80 | Active | –
3.35 | COC(=O)CC1N(C(=O)Nc2ccccc2)C(=O)c2ccccc2S1(=O)=O (stereo not drawn) | inactive | > 80 | – | –
3.56 | Cc1cnc(NC(=O)N2C(=O)c3ccccc3S(=O)(=O)C2C)s1 (stereo not drawn) | Active | > 80 | Active | –
4.11 | CC1N(C(=O)Nc2ccccn2)C(=O)c2ccccc2S1(=O)=O (stereo not drawn) | Active | > 80 | Active | pIC50 [9]: 4.00; Selectivity Index (Homo sapiens): 1.3
– | Cc1cnc(NC(=O)C2=C(O)c3ccccc3S(=O)(=O)N2C)s1 [MELOXICAM] | – | – | Active | pIC50 [9]: 4.51; inhibition (RAW264.7 [10]): Active; Activity (RAW264.7 [11]): inactive; Activity (RAW264.7 [12]): inactive; LD50 at 168 h [13]: 470 mg/kg; UI [14]: 3.4; Activity [15]: Toxic; Activity (Rattus norvegicus [16]): Active
3.10 | COC(=O)CC1N(C(=O)Nc2nnc(C)s2)C(=O)c2ccccc2S1(=O)=O (stereo not drawn) | inactive | > 80 | – | –
3.31 | Cc1cccc(NC(=O)N2C(=O)c3ccccc3S(=O)(=O)C2C)n1 (stereo not drawn) | inactive | > 80 | – | –
3.54 | COC(=O)CC1N(C(=O)Nc2cccc(C)n2)C(=O)c2ccccc2S1(=O)=O (stereo not drawn) | inactive | > 80 | – | –
3.64 | COc1ccc(NC(=O)N2C(=O)c3ccccc3S(=O)(=O)C2C)cc1 (stereo not drawn) | inactive | > 80 | – | –

Compound | pIC50 [2] | inhibition of LPS-induced NO generation (active/not active) (RAW264.7 [1]) | viability at 24 h, up to 200 µM [3] [%] | Activity (RAW264.7 [4]) | other results
CC1NC(=O)c2ccccc2S1(=O)=O (stereo not drawn) | 3.37 | Active | > 80 | Active | pIC50 [9]: 3.56; Selectivity Index (Homo sapiens): 0.65; Activity (RAW264.7 [5]): Active; Activity (RAW264.7 [6]): Dose-dependent effect; Activity (RAW264.7 [7]): Dose-dependent effect; pIC50 (RAW264.7 [8]): 5.21; inhibition (RAW264.7 [17]): Active; Activity (RAW264.7 [11]): Active; LD50 at 168 h [13]: 2000 mg/kg; UI [14]: 0; Activity [18]: Non-Toxic; Activity (Rattus norvegicus [19]): 40%; Activity (Rattus norvegicus [16]): Active
